Assays:
[1] = biological target: human μ-opiate receptor (Homo sapiens, UniProt P35372); experiment: μ-opiate receptor binding, [3H]-naloxone displacement, CHO-K1 membrane preparation; details: No. 1-49
[2] = test system: mice; details: mouse, in vivo, ip, 30 mg/kg
[3] = biological target: HERG channel (Homo sapiens, UniProt Q12809); details: read-out: IC50, HERG channel; Katchman et al. 2002; cited from earlier work
Chain of HERG channel (Q12809 whole entry): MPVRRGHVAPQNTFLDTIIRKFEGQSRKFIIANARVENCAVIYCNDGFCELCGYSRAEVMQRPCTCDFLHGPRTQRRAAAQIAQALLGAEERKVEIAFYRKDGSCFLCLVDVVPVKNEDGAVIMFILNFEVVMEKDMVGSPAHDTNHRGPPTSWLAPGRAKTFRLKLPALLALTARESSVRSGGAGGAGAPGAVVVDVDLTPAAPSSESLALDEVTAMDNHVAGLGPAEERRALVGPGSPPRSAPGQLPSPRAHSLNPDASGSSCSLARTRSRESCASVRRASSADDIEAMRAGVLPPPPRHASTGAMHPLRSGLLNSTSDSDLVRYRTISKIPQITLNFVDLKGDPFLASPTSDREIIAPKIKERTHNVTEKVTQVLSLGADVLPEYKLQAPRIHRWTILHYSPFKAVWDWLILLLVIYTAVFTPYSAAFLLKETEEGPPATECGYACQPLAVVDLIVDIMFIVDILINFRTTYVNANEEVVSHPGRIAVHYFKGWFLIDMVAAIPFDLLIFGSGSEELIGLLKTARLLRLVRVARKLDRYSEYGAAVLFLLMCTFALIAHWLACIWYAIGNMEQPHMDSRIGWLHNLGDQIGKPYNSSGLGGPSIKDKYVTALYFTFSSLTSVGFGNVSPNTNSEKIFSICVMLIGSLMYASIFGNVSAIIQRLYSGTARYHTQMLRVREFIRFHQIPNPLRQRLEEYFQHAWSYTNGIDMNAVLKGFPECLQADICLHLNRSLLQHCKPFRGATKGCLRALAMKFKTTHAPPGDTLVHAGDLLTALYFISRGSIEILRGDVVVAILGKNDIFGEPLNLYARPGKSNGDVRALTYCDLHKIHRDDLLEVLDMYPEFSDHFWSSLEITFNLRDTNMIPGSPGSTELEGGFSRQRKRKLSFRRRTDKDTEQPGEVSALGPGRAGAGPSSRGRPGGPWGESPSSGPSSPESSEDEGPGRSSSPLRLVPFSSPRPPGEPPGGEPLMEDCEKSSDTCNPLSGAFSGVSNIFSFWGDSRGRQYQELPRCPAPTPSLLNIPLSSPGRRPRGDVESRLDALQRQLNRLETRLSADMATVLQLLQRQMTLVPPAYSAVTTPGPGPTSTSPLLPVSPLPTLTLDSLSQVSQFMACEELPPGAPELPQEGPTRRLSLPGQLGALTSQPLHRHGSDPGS

Chain of human μ-opiate receptor (P35372 whole entry): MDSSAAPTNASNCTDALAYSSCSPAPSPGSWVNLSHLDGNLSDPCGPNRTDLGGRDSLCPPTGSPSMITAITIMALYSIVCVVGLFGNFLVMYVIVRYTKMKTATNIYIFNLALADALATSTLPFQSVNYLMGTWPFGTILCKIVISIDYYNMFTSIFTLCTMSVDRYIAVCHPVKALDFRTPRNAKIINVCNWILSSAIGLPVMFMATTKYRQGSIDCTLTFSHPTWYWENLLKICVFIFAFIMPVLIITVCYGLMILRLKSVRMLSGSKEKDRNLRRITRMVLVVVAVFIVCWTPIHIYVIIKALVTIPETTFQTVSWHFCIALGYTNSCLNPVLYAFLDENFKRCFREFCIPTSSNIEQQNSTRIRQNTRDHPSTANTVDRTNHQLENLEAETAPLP

Compound: CN(C)C1(c2ccccc2)CCC2(CC1)NCCc1c2oc2ccccc12 (stereo not drawn) [Example 12, 1,1-(3-dimethylamino-3-phenylpentamethylene)-1,3,4,9-tetrahydro-2-aza-9-oxafluorene]
- Ki [1]: 0.17 µM

Compound: CCC(=O)C(C[C@@H](C)N(C)C)(c1ccccc1)c1ccccc1 [Levomethadone, levomethadone]
- withdrawal jumping triggered by naloxone [2]: induced withdrawal jumping

Compound: CCC(=O)C(CC(C)N(C)C)(c1ccccc1)c1ccccc1 (racemic) [methadone]
- IC50 [3]: 9.8 µM

From patent publication US8034936B2, “Spirocyclic cyclohexane compounds useful to treat substance dependency” (Gruenenthal GmbH, priority 2005, dated 2011)
